pEC50, pKi: −log10 of the molar value.
Tests used:
h-EP2 [1] = biological target: T1, h-EP2 (Homo sapiens, UniProt P43116); assay: Prostaglandin EP2 receptor binding assay (3H-PGE2, SPA); settings: EP2 receptor membranes, 20 nM 3H-PGE2, pH 6.0, 2 hrs at room temperature
T1 construct: expressed in transfected cells; host or cells: HEK293-EBNA
Protocol: Compounds of the invention were tested in an EP2 receptor binding assay of the following protocol. As referred to herein, the term a “standard EP2 receptor binding assay” designates the following protocol which allows the determination of the affinity of the test compounds for the EP2 receptor

h-EP2 [2] = biological target: T1, h-EP2; assay: EP2 total cAMP assay; format: cell-based; settings: HEK293-EBNA cells transfected with pCEP4-hEP2, 1 hour at 37° C.
Protocol: Compounds of the invention were tested in a total cAMP assay as follows. HEK293-EBNA cells transfected with pCEP4-hEP2 receptors were seeded in 96 well opaque plate (Costar #3917) at 4×10^4 cells per well in 100 μl of culture medium (D-MEM/F12 supplemented with 10% FBS, […] L-glutamine, and 250 μg/ml of hygromycin; all from GibcoBRL) and incubated at 37° C. After overnight incubation, the medium was removed from each well and replaced with 45 μl of assay medium consisted of phenol red free D-MEM/F-12, 0.1% BSA (GibcoBRL) and 0.1 mM3-isobutyl-1-methyl-xanthine (Sigma). After 15 minutes of incubation at 37° C., 16-16-dimethyl PGE-2 or compounds at desired concentrations in 20 μl of assay medium were added to cells and further incubated at 37° C. for 1 hour. Total cAMP (intra- and extra-cellular) was measured by using a cAMP-screen ELISA System (Tropix, #CS1000).

h-EP4 = h-EP4 (Homo sapiens, UniProt P35408); assay: EP4 receptor binding assay (3H-PGE2, SPA); settings: EP4 receptor membranes, 20 nM 3H-PGE2, pH 6.0, 2 hrs at room temperature
Sequence of h-EP4 (P35408 whole entry): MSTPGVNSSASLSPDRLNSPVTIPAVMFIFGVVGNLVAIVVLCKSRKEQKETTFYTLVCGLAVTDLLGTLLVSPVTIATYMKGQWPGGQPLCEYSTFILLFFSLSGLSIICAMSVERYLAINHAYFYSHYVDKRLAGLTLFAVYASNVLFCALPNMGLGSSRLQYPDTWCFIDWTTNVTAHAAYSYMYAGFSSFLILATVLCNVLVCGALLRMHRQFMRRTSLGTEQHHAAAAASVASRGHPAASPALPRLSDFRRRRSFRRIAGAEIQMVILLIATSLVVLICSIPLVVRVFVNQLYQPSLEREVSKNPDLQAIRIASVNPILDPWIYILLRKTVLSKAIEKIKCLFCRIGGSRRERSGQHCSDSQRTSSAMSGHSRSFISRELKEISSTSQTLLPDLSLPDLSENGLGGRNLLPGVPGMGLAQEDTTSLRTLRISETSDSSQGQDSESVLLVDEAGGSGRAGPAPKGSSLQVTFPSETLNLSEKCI
Protocol: Compounds of the invention were tested in an EP4 receptor binding assay of the following protocol which allows the determination of the affinity of the test compounds for the EP4 receptor.

T1 sequence (P43116 whole entry): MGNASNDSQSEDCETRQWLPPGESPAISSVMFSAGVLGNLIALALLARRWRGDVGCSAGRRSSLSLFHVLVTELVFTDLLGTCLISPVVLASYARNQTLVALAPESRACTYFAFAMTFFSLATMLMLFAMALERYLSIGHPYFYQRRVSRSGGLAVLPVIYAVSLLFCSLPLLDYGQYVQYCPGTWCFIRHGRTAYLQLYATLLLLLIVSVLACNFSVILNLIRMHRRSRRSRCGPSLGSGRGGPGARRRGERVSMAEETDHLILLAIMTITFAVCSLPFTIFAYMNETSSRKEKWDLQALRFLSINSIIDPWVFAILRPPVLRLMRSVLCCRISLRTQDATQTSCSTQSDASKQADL

Molecule | pKi (h-EP2 [1]) | pEC50 (h-EP2 [2]) | pKi (h-EP4)
CCCCC1(C(O)CCCN2CC[C@@H](Cl)[C@@H]2CCc2ccc(C(=O)O)cc2)CCC1 (stereo in doubt) [Example 11, 4-(2-{1-[4-(1-butylcyclobutyl)-4-hydroxybutyl]-3-chloropyrrolidin-2-yl}ethyl)benzoic acid] | 5.46 | 6.60 | 
(5Z)-7-{(trans-2,3)-3-Chloro-1-[(4S and 4 R)-hydroxy-4-(1-butylcyclobutyl)butyl]pyrrolidin-2-yl}hept-5-enoic acid [Example 15] | 4.96 | 5.07 | 6.81
Cc1cccc(CC(O)CCN2CCC(=O)[C@@H]2C/C=C\CCCC(=O)O)c1 (stereo partly drawn) [Example 13, (5Z)-7-{(2S)-1-[3-hydroxy-4-(3-methylphenyl)butyl]-3-oxopyrrolidin-2-yl}hept-5-enoic acid] | 5.00 | 6.43 | 8.30
CCCCC[C@@H](O)CCCN1CC[C@@H](Cl)C1C/C=C\CCCC(=O)O (stereo in doubt) [Example 1, (5Z)7-[(2R,3R)-3-Chloro-1-(4-hydroxynonyl)-pyrrolidin-2-yl]-hept-5-enoic acid] | 5.25 | 7.32 | 

— patent publication US8058305B2, “Pyrrolidine derivatives as prostaglandin modulators” (Merck Serono SA, priority 2001, dated 2011)
